Test systems include OVCAR-3; SN12C; A549; UACC-257; PC-3; COLO 205; NCI-H522; CAKI-1; SW-620; RPMI-8226; UACC-62; NCI-H23; DU-145; MOLT-4; U-251; SR; MDA-MB-231; EKVX; HOP-92.
What all share (test): growth of human tumour cells (NCI), 48 h

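Briefly, cells in 96-well plates were exposed to five compound concentrations for 48 h, and endpoints were estimated by linear interpolation. Here, GI50 denotes the concentration required for 50% inhibition of growth.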 Active and inactive are the calls of the source. Rule as the data show it: active = GI50 up to about 1.1 µM and inactive = higher. Where only a bound is given, the exact number is not on record here.

As to `COc1ccc(C2CC(c3ccccc3)=Nc3c(-c4ccccc4)nnn32)cc1` (stereo unspecified), the GI50 is 54.7 µM (inactive) with OVCAR-3; > 100 µM (inactive) in the experiment with SN12C; 39.2 µM (inactive) with A549; > 100 µM (inactive) in the experiment on UACC-257; 72.6 µM (inactive) with PC-3; > 100 µM (inactive) with COLO 205. Moreover, the GI50 is 8.22 µM (inactive) in the experiment with NCI-H522; 98.4 µM (inactive) with CAKI-1; > 100 µM (inactive) with SW-620; 12.8 µM (inactive) with RPMI-8226; 55.7 µM (inactive) in the experiment on UACC-62; > 100 µM (inactive) with NCI-H23. Besides, the GI50 with DU-145 was > 100 µM (inactive); in the experiment with MOLT-4 it was > 100 µM (inactive); with U-251 it was 9.84 µM (inactive); with SR it was 23.3 µM (inactive); in the experiment with MDA-MB-231 it was 85.1 µM (inactive).
Turning to `Clc1cc2nnn(C3CCCCO3)c2cc1Cl` (stereo unspecified), the GI50 with OVCAR-3 is 69.3 µM (inactive); in the experiment with SN12C, > 100 µM (inactive); in the experiment on A549, 80.2 µM (inactive); with UACC-257, 60.7 µM (inactive); in the experiment with PC-3 it was 58.1 µM (inactive); with COLO 205, > 100 µM (inactive). Also, the GI50 in the experiment with NCI-H522 was 42.5 µM (inactive); with EKVX, 20.7 µM (inactive); in the experiment with CAKI-1, 30.4 µM (inactive); in the experiment with RPMI-8226, > 100 µM (inactive); in the experiment with UACC-62 it was 37.2 µM (inactive); with NCI-H23 it was > 100 µM (inactive). The GI50 in the experiment on DU-145 is 99.1 µM (inactive); in the experiment with MOLT-4, 75.7 µM (inactive); with U-251, 80.7 µM (inactive); with SR it was 51.6 µM (inactive); in the experiment on MDA-MB-231 it was 24.5 µM (inactive).
With `O=C(NNCc1ccccc1O)c1ccccc1O`, the GI50 in the experiment with OVCAR-3 was 0.766 µM (active); with SN12C it was 4.03 µM (inactive); in the experiment on A549, 8.13 µM (inactive); in the experiment on UACC-257 it was 29.2 µM (inactive); with PC-3, 24.9 µM (inactive); with COLO 205, 7.93 µM (inactive). Also, the GI50 in the experiment with NCI-H522 was 2.28 µM (inactive); in the experiment on EKVX it was 5.89 µM (inactive); with CAKI-1, 9.55 µM (inactive); in the experiment with SW-620 it was 3.48 µM (inactive); with RPMI-8226 it was 3.27 µM (inactive); in the experiment with UACC-62, 5.42 µM (inactive). In addition, the GI50 is 9.84 µM (inactive) in the experiment on NCI-H23; 3.22 µM (inactive) in the experiment on DU-145; 33 µM (inactive) with HOP-92; 1.75 µM (inactive) with MOLT-4; 5.75 µM (inactive) in the experiment with U-251; > 100 µM (inactive) in the experiment with MDA-MB-231.
For `CC(=O)OCC1OC(Oc2cc(C)c(O)cc2C/C=C(\C)CC/C=C(\C)C[C@@H](C=C(C)C)OC(C)=O)C(O)C(OC(C)=O)C1OC(C)=O` (stereo partly specified), the GI50 was 13.4 µM (inactive) with OVCAR-3; 20.2 µM (inactive) in the experiment on SN12C; 19.1 µM (inactive) with A549; 10 µM (inactive) with UACC-257; 18.2 µM (inactive) with PC-3; 9.38 µM (inactive) in the experiment on COLO 205. For the same molecule, the GI50 in the experiment on NCI-H522 was 17.1 µM (inactive); in the experiment on EKVX, 38.6 µM (inactive); with CAKI-1 it was > 50 µM (inactive); with SW-620, 23.6 µM (inactive); with RPMI-8226 it was 9.84 µM (inactive); with UACC-62 it was 13.1 µM (inactive). For the same molecule, the GI50 in the experiment with NCI-H23 was 23.3 µM (inactive); with DU-145, 28.6 µM (inactive); in the experiment on HOP-92, > 50 µM (inactive); with MOLT-4, 8.26 µM (inactive); in the experiment on U-251, 25.5 µM (inactive); with MDA-MB-231, 37.3 µM (inactive).
On to `N#Cc1nsnc1-c1nc(-c2nsnc2C#N)nc(-c2nsnc2C#N)n1`, for which the GI50 in the experiment on OVCAR-3, in the experiment on SN12C, in the experiment on UACC-257, with PC-3, in the experiment with COLO 205 and in the experiment on NCI-H522 was > 100 µM (inactive) throughout. For the same molecule, the GI50 in the experiment on EKVX, in the experiment with CAKI-1, with SW-620, with RPMI-8226, in the experiment on UACC-62 and in the experiment with NCI-H23 was > 100 µM (inactive) in each case. The GI50 in the experiment on DU-145, in the experiment with MOLT-4, in the experiment with U-251, in the experiment with SR and in the experiment with MDA-MB-231 was > 100 µM (inactive) each time.
With `Cn1c2ccccc2c(=O)c2c(O)cc3c(c21)C=CC1(CCCCC1)O3`, the GI50 with OVCAR-3, in the experiment on SN12C, with A549, in the experiment with UACC-257, in the experiment with PC-3 and with COLO 205 was > 10 µM (inactive) in each case. The GI50 is > 10 µM (inactive) in the experiment with NCI-H522; 8.41 µM (inactive) with EKVX; > 10 µM (inactive) in the experiment with CAKI-1; > 10 µM (inactive) in the experiment with SW-620; > 10 µM (inactive) in the experiment with RPMI-8226; > 10 µM (inactive) in the experiment with UACC-62. In addition, the GI50 with NCI-H23, with DU-145, with HOP-92, in the experiment with MOLT-4, with U-251 and in the experiment on MDA-MB-231 was > 10 µM (inactive) each time.
In the case of `c1cc2cc(c1)CN1CCNCCN(CCNCC1)Cc1cccc(c1)CN1CCNCCN(CCNCC1)C2`, the GI50 in the experiment with OVCAR-3, in the experiment with SN12C, with A549, in the experiment on UACC-257, with PC-3 and in the experiment with COLO 205 was > 100 µM (inactive) each time. The GI50 with EKVX, in the experiment on SW-620, with RPMI-8226, in the experiment with UACC-62, in the experiment on NCI-H23 and in the experiment on DU-145 was > 100 µM (inactive) each time. The GI50 in the experiment with MOLT-4 is > 100 µM (inactive); in the experiment with U-251, > 100 µM (inactive); in the experiment on SR, 78 µM (inactive); in the experiment on MDA-MB-231, > 100 µM (inactive).
As to `CCOP(=O)(OCC)[C@H](O)c1ccsc1`, the GI50 with SN12C, with A549, in the experiment with UACC-257, in the experiment with PC-3, in the experiment on COLO 205 and with NCI-H522 was > 100 µM (inactive) each time. Moreover, the GI50 with EKVX, with CAKI-1, in the experiment on SW-620, in the experiment on RPMI-8226, in the experiment on UACC-62 and in the experiment with NCI-H23 was > 100 µM (inactive) each time. In addition, the GI50 in the experiment with DU-145, in the experiment on MOLT-4, in the experiment with U-251, in the experiment with SR and with MDA-MB-231 was > 100 µM (inactive) in each case.
Turning to `Oc1[nH]c(NCc2ccc(Cl)cc2)nc2ncnc1-2`, the GI50 with OVCAR-3, with SN12C, in the experiment on A549, with UACC-257, in the experiment on PC-3 and in the experiment on COLO 205 was > 100 µM (inactive) throughout. Besides, the GI50 was 30.3 µM (inactive) in the experiment with NCI-H522; > 100 µM (inactive) with EKVX; > 100 µM (inactive) with CAKI-1; > 100 µM (inactive) in the experiment on SW-620; > 100 µM (inactive) with RPMI-8226; > 100 µM (inactive) in the experiment with UACC-62. The GI50 with NCI-H23, with DU-145, with HOP-92, with MOLT-4, in the experiment on U-251 and with MDA-MB-231 was > 100 µM (inactive) in each case.
Regarding `CCOC(=O)C(=O)N/N=C1\C(=O)Nc2ccccc21`, the GI50 in the experiment with SN12C, in the experiment on A549, with UACC-257, in the experiment with PC-3, in the experiment on COLO 205 and in the experiment on NCI-H522 was > 100 µM (inactive) throughout. The GI50 in the experiment on EKVX, with CAKI-1, with SW-620, with RPMI-8226, in the experiment with UACC-62 and in the experiment on NCI-H23 was > 100 µM (inactive) each time. Moreover, the GI50 with DU-145, with MOLT-4, in the experiment with U-251, in the experiment on SR and with MDA-MB-231 was > 100 µM (inactive) each time.
In the case of `OC(C1CCCC1=N/N=C1/CCCC1C(O)(C(F)(F)Cl)C(F)(F)Cl)(C(F)(F)Cl)C(F)(F)Cl` (stereo unspecified), the GI50 in the experiment with OVCAR-3, in the experiment with SN12C, with A549, with UACC-257, with PC-3 and in the experiment on COLO 205 was > 10 µM (inactive) each time. Moreover, the GI50 with NCI-H522, in the experiment on EKVX, in the experiment with CAKI-1, with SW-620, in the experiment on RPMI-8226 and with UACC-62 was > 10 µM (inactive) throughout. Further, the GI50 in the experiment on NCI-H23, in the experiment on DU-145, in the experiment on HOP-92, in the experiment with MOLT-4, in the experiment with U-251 and in the experiment with MDA-MB-231 was > 10 µM (inactive) each time.

The values above are taken from ChEMBL document CHEMBL1201862, “PubChem BioAssay data set” (2004).
